Patent US20120029177A1, “HETEROCYCLE-AMINO ACID DERIVATIVES FOR TARGETING CANCER TISSUE AND RADIOACTIVE OR NON-RADIOACTIVE LABELED COMPOUNDS THEREOF” (SNU R&DB FOUNDATION, priority 2009, published 2012)

Tested on: SNU-C4 xenografted nude mice
Experiment: Biodistribution study in SNU-C4 xenografted nude mice after intravenous injection
Assay type: in vivo, mouse
Conditions: for % ID/g Tumor: SNU-C4 tumor
Description: Human colon cancer cell line SNU-C4 was cultured in RPMI1640 media containing 10% fetal bovine serum and harvested using trypsin. The cells were washed using 10 mL PBS and centrifugation at 3,000 rpm. Each nude mouse was injected with 2×10^5 cells/0.1 mL on the right shoulder subcutaneously. On 13 days post-injection, each 10 μCi/0.1 mL of ^68Ga labeled agent was injected into the xenografted mice through the tail vein. The injected mice were sacrificed at 10 min, 30 min, 1 hr, and 2 hr, cancer, blood, muscle, heart, liver, spleen, stomach, intestine, and bone were obtained, weighed, and their radioactivities were counted. The results were expressed as percentages of injected dose per gram tissue (% ID/g).

[1] = 10 min after intravenous injection
[2] = 30 min after intravenous injection
[3] = 1 hr after intravenous injection
[4] = 2 hr after intravenous injection

## O=C([O-])CN1CCN(CC(=O)[O-])CCN(CC(=O)O)CCN(CC(=O)[O-])CC1.[68Ga+3] [^68Ga-DOTA, reference compound]
[1]
  % ID/g Tumor: 2.55 ± 0.81 % ID/g
  % ID/g Blood: 7.52 ± 0.77 % ID/g
  % ID/g Bone: 1.86 ± 0.22 % ID/g
  % ID/g Heart: 2.04 ± 0.19 % ID/g
  % ID/g Intestine: 1.62 ± 0.11 % ID/g
  % ID/g Kidney: 16.19 ± 1.83 % ID/g
  % ID/g Liver: 1.30 ± 0.15 % ID/g
  % ID/g Muscle: 2.08 ± 0.11 % ID/g
  % ID/g Spleen: 1.41 ± 0.08 % ID/g
  % ID/g Stomach: 1.86 ± 0.39 % ID/g
[2]
  % ID/g Tumor: 1.26 ± 0.23 % ID/g
  % ID/g Blood: 2.76 ± 0.41 % ID/g
  % ID/g Bone: 0.85 ± 0.11 % ID/g
  % ID/g Heart: 0.68 ± 0.09 % ID/g
  % ID/g Intestine: 0.68 ± 0.08 % ID/g
  % ID/g Kidney: 6.33 ± 0.95 % ID/g
  % ID/g Liver: 0.60 ± 0.08 % ID/g
  % ID/g Muscle: 0.70 ± 0.12 % ID/g
  % ID/g Spleen: 0.56 ± 0.07 % ID/g
  % ID/g Stomach: 0.72 ± 0.15 % ID/g
[3]
  % ID/g Tumor: 0.60 ± 0.06 % ID/g
  % ID/g Blood: 0.90 ± 0.19 % ID/g
  % ID/g Bone: 0.33 ± 0.10 % ID/g
  % ID/g Heart: 0.23 ± 0.08 % ID/g
  % ID/g Intestine: 0.36 ± 0.05 % ID/g
  % ID/g Kidney: 4.13 ± 1.13 % ID/g
  % ID/g Liver: 0.32 ± 0.04 % ID/g
  % ID/g Muscle: 0.26 ± 0.12 % ID/g
  % ID/g Spleen: 0.27 ± 0.06 % ID/g
  % ID/g Stomach: 0.26 ± 0.06 % ID/g
[4]
  % ID/g Tumor: 0.41 ± 0.09 % ID/g
  % ID/g Blood: 0.21 ± 0.01 % ID/g
  % ID/g Bone: 0.17 ± 0.17 % ID/g
  % ID/g Heart: 0.08 ± 0.05 % ID/g
  % ID/g Intestine: 0.26 ± 0.08 % ID/g
  % ID/g Kidney: 2.92 ± 0.97 % ID/g
  % ID/g Liver: 0.21 ± 0.03 % ID/g
  % ID/g Muscle: 0.10 ± 0.04 % ID/g
  % ID/g Spleen: 0.18 ± 0.06 % ID/g
  % ID/g Stomach: 0.10 ± 0.03 % ID/g

## O=C([O-])CN1CCNCCN(CC(=O)[O-])CCNCC1.[68Ga+3] [^68Ga-DO2A, reference compound]
[1]
  % ID/g Tumor: 2.71 ± 0.51 % ID/g
  % ID/g Blood: 7.82 ± 1.05 % ID/g
  % ID/g Bone: 2.56 ± 0.61 % ID/g
  % ID/g Heart: 2.33 ± 0.32 % ID/g
  % ID/g Intestine: 2.24 ± 0.36 % ID/g
  % ID/g Kidney: 32.32 ± 21.63 % ID/g
  % ID/g Liver: 2.91 ± 0.31 % ID/g
  % ID/g Lung: 6.96 ± 1.06 % ID/g
  % ID/g Muscle: 2.81 ± 0.82 % ID/g
  % ID/g Spleen: 1.86 ± 0.24 % ID/g
  % ID/g Stomach: 2.52 ± 0.46 % ID/g
[2]
  % ID/g Tumor: 2.10 ± 0.23 % ID/g
  % ID/g Blood: 3.61 ± 0.74 % ID/g
  % ID/g Bone: 1.54 ± 0.53 % ID/g
  % ID/g Heart: 0.97 ± 0.20 % ID/g
  % ID/g Intestine: 1.27 ± 0.25 % ID/g
  % ID/g Kidney: 13.61 ± 3.98 % ID/g
  % ID/g Liver: 2.75 ± 0.49 % ID/g
  % ID/g Lung: 3.57 ± 0.80 % ID/g
  % ID/g Muscle: 1.45 ± 0.42 % ID/g
  % ID/g Spleen: 1.03 ± 0.22 % ID/g
  % ID/g Stomach: 1.22 ± 0.32 % ID/g
[3]
  % ID/g Tumor: 0.99 ± 0.10 % ID/g
  % ID/g Blood: 1.12 ± 0.27 % ID/g
  % ID/g Bone: 0.72 ± 0.23 % ID/g
  % ID/g Heart: 0.37 ± 0.10 % ID/g
  % ID/g Intestine: 0.68 ± 0.11 % ID/g
  % ID/g Kidney: 8.46 ± 2.11 % ID/g
  % ID/g Liver: 2.31 ± 0.27 % ID/g
  % ID/g Lung: 1.32 ± 0.35 % ID/g
  % ID/g Muscle: 0.45 ± 0.17 % ID/g
  % ID/g Spleen: 0.47 ± 0.10 % ID/g
  % ID/g Stomach: 0.38 ± 0.05 % ID/g
[4]
  % ID/g Tumor: 0.67 ± 0.12 % ID/g
  % ID/g Blood: 0.44 ± 0.06 % ID/g
  % ID/g Bone: 0.58 ± 0.19 % ID/g
  % ID/g Heart: 0.23 ± 0.03 % ID/g
  % ID/g Intestine: 0.62 ± 0.07 % ID/g
  % ID/g Kidney: 6.90 ± 1.10 % ID/g
  % ID/g Liver: 2.17 ± 0.20 % ID/g
  % ID/g Lung: 0.87 ± 0.25 % ID/g
  % ID/g Muscle: 0.13 ± 0.07 % ID/g
  % ID/g Spleen: 0.38 ± 0.08 % ID/g
  % ID/g Stomach: 0.18 ± 0.03 % ID/g

## O=C([O-])CN1CCNCCN(CC(=O)[O-])CCN(CC(=O)[O-])CC1.[68Ga+3] [^68Ga-DO3A, reference compound]
[1]
  % ID/g Tumor: 3.14 ± 0.73 % ID/g
  % ID/g Blood: 6.96 ± 0.18 % ID/g
  % ID/g Bone: 1.64 ± 0.48 % ID/g
  % ID/g Heart: 1.75 ± 0.12 % ID/g
  % ID/g Intestine: 1.87 ± 0.06 % ID/g
  % ID/g Kidney: 11.96 ± 0.51 % ID/g
  % ID/g Liver: 1.99 ± 0.03 % ID/g
  % ID/g Lung: 5.81 ± 0.54 % ID/g
  % ID/g Muscle: 1.69 ± 0.39 % ID/g
  % ID/g Spleen: 1.63 ± 0.08 % ID/g
  % ID/g Stomach: 2.37 ± 0.56 % ID/g
[2]
  % ID/g Tumor: 1.83 ± 0.20 % ID/g
  % ID/g Blood: 3.21 ± 0.58 % ID/g
  % ID/g Bone: 0.97 ± 0.28 % ID/g
  % ID/g Heart: 0.77 ± 0.11 % ID/g
  % ID/g Intestine: 1.00 ± 0.14 % ID/g
  % ID/g Kidney: 7.85 ± 1.00 % ID/g
  % ID/g Liver: 1.35 ± 0.13 % ID/g
  % ID/g Lung: 2.82 ± 0.59 % ID/g
  % ID/g Muscle: 0.92 ± 0.27 % ID/g
  % ID/g Spleen: 0.95 ± 0.14 % ID/g
  % ID/g Stomach: 1.00 ± 0.24 % ID/g
[3]
  % ID/g Tumor: 0.93 ± 0.33 % ID/g
  % ID/g Blood: 1.03 ± 0.34 % ID/g
  % ID/g Bone: 0.38 ± 0.12 % ID/g
  % ID/g Heart: 0.32 ± 0.09 % ID/g
  % ID/g Intestine: 0.64 ± 0.17 % ID/g
  % ID/g Kidney: 6.52 ± 3.13 % ID/g
  % ID/g Liver: 1.02 ± 0.16 % ID/g
  % ID/g Lung: 1.26 ± 0.28 % ID/g
  % ID/g Muscle: 0.32 ± 0.17 % ID/g
  % ID/g Spleen: 0.64 ± 0.09 % ID/g
  % ID/g Stomach: 0.43 ± 0.20 % ID/g
[4]
  % ID/g Tumor: 0.54 ± 0.04 % ID/g
  % ID/g Blood: 0.22 ± 0.02 % ID/g
  % ID/g Bone: 0.28 ± 0.33 % ID/g
  % ID/g Heart: 0.06 ± 0.09 % ID/g
  % ID/g Intestine: 0.42 ± 0.08 % ID/g
  % ID/g Kidney: 7.50 ± 3.82 % ID/g
  % ID/g Liver: 0.93 ± 0.05 % ID/g
  % ID/g Lung: 0.61 ± 0.23 % ID/g
  % ID/g Muscle: 0.10 ± 0.03 % ID/g
  % ID/g Spleen: 0.53 ± 0.11 % ID/g
  % ID/g Stomach: 0.16 ± 0.05 % ID/g
